Patent US10294229B2, “Heteroaryl substituted aminopyridine compounds” (BRISTOL-MYERS SQUIBB COMPANY, priority 2015, dated 2019)
pEC50, pIC50: −log10 of the molar value.

Tests used:
IRAK4 = IRAK4 (Homo sapiens (Human), UniProt Q9NWZ3); experiment: IRAK4 Inhibition Assay; format: biochemical; settings: ATP 500 μM; IRAK4 0.6 nM
Method in brief: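 Enzyme 0.6 nM, ATP 500 μM, FL-peptide 1.5 μM, DMSO 1.6%; HEPES pH 7.2/MgCl2/Brij 35/DTT buffer. RT, 60 min, EDTA stop. Mobility-shift product/substrate ratio; % inhib vs no-enzyme and vehicle controls.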

[1] = Caco-2 Permeability Assay; format: in vitro ADME; settings: human, Caco-2, test compound 3 μM
Method in brief: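 Bidirectional permeability measured over 2 h at 37° C, compound dosed at 3 μM in the donor compartment (apical for absorptive, basolateral for secretive) with plain buffer as receiver.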

[2] = test system: Human whole blood stimulated with a TLR2 agonist (lipoteichoic acid), IL-6 levels; experiment: IRAK4 Whole Blood Assay; format: cell-based; settings: lipoteichoic acid 10 μg/mL
Method in brief: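 ACD-A-anticoagulated human whole blood was preincubated with compounds for 60 min at 37 °C under 5% CO2. It was then stimulated with 10 μg/mL lipoteichoic acid (final) in RPMI for 5 h. IL-6 in plasma supernatants was measured by flow cytometry bead assay.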

Sequence of IRAK4 (Q9NWZ3 whole entry, species assumed): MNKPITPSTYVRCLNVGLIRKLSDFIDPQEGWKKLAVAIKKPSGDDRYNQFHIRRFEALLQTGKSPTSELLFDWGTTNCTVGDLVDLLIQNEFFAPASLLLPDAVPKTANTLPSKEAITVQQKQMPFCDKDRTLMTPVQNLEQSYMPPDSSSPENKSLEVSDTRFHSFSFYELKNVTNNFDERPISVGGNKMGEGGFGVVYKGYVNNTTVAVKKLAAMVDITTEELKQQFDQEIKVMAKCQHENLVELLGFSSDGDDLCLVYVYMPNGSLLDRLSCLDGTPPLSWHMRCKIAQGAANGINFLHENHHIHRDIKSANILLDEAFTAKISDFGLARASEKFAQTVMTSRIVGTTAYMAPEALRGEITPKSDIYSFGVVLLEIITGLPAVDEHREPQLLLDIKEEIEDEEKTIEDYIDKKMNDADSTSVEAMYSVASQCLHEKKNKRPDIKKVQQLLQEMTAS

| Structure (SMILES) | pIC50 (IRAK4) | Papp at 2 h, 3 µM [1] | pEC50 ([2]; Homo sapiens) | pEC50 [2] |
| --- | --- | --- | --- | --- |
| CC(=O)N1CC(n2cc(-c3cnc(-n4ncc5cc(C#N)cnc54)cc3NC(C)C)nn2)C1 [Example 154, 1-(5-(1-(1-acetylazetidin-3-yl)-1H-1,2,3-triazol-4-yl)-4-(isopropylamino)pyridin-2-yl)-1H-pyrazolo[3,4-b]pyridine-5-carbonitrile] | 8.40 | < 1.5 ×10⁻⁶ cm/s | 6.82 |  |
| CC(C)Nc1cc(-n2ncc3cc(C#N)cnc32)ncc1-c1cc([C@@H]2C[C@H](O)CCN2)no1 [Example 424, 1-(5-(3-((2S,4R)-4-hydroxypiperidin-2-yl)isoxazol-5-yl)-4-(isopropylamino)pyridin-2-yl)-1H-pyrazolo[3,4-b]pyridine-5-carbonitrile] | 8.00 | < 1.5 ×10⁻⁶ cm/s | 6.74 |  |
| CC(=O)N1CC[C@@H](n2cc(-c3cnc(-n4ncc5cc(C#N)cnc54)cc3NC(C)C)nn2)[C@H](O)C1 (single isomer, unassigned) [Example 203] | 8.40 | < 1.5 ×10⁻⁶ cm/s | 6.14 |  |
| CC(C)(O)CCc1cn(-c2cnc(-n3ncc4cc(C#N)cnc43)cc2NC2CC(F)(F)C2)nn1 [Example 367, 1-(4-((3,3-difluorocyclobutyl)amino)-5-(4-(3-hydroxy-3-methylbutyl)-1H-1,2,3-triazol-1-yl)pyridin-2-yl)-1H-pyrazolo[3,4-b]pyridine-5-carbonitrile] | 8.05 | 3.6 ×10⁻⁶ cm/s | 6.64 |  |
| CC(C)Nc1cc(-n2ncc3cc(C#N)cnc32)ncc1-c1cn(CC2CC2(F)F)nn1 (single isomer, unassigned) [Example 31, 1-(5-(1-((2,2-difluorocyclopropyl)methyl)-1H-1,2,3-triazol-4-yl)-4-(isopropylamino)pyridin-2-yl)-1H-pyrazolo[3,4-b]pyridine-5-carbonitrile] | 8.15 | 15.9 ×10⁻⁶ cm/s |  | 5.71 |
| CCn1cc(-c2cnc(-n3ncc4cc(C#N)cnc43)cc2NC(C)C)nn1 [Example 37, 1-(5-(1-ethyl-1H-1,2,3-triazol-4-yl)-4-(isopropylamino)pyridin-2-yl)-1H-pyrazolo[3,4-b]pyridine-5-carbonitrile] | 8.30 | 33.9 ×10⁻⁶ cm/s | 6.80 |  |
| CC(C)Nc1cc(-n2ccc3cc(C#N)cnc32)ncc1-c1cn(CCN2CCOCC2)nn1 [Example 163, 1-(4-(isopropylamino)-5-(1-(2-morpholinoethyl)-1H-1,2,3-triazol-4-yl)pyridin-2-yl)-1H-pyrrolo[2,3-b]pyridine-5-carbonitrile, 2TFA] | 8.70 | 19.5 ×10⁻⁶ cm/s | 6.22 |  |
| CC(F)Cn1cc(-c2cnc(-n3ncc4cc(C#N)cnc43)cc2NC(C)C)nn1 (single isomer, unassigned; enantiomer 1) [Example 166, 1-(5-(1-(2-fluoropropyl)-1H-1,2,3-triazol-4-yl)-4-(isopropylamino)pyridin-2-yl)-1H-pyrazolo[3,4-b]pyridine-5-carbonitrile, enantiomer 1] | 8.22 | 36.1 ×10⁻⁶ cm/s |  | 6.96 |
| CC(=O)N1CCC(F)(c2cc(-c3cnc(-n4ncc5cc(C#N)cnc54)cc3NC(C)C)on2)CC1 [Example 421, 1-(5-(3-(1-acetyl-4-fluoropiperidin-4-yl)isoxazol-5-yl)-4-(isopropylamino)pyridin-2-yl)-1H-pyrazolo[3,4-b]pyridine-5-carbonitrile] | 8.52 | 32.2 ×10⁻⁶ cm/s | 6.70 |  |
| CC(C)Nc1cc(-n2ncc3cc(C#N)cnc32)ncc1-c1cn(C2CCN(S(C)(=O)=O)CC2)nn1 [Example 196, 1-(4-(isopropylamino)-5-(1-(1-(methylsulfonyl)piperidin-4-yl)-1H-1,2,3-triazol-4-yl)pyridin-2-yl)-1H-pyrazolo[3,4-b]pyridine-5-carbonitrile] | 8.40 | 4.7 ×10⁻⁶ cm/s | 5.92 |  |
| CC(=O)Cc1cn(-c2cnc(-n3ncc4cc(C#N)cnc43)cc2NC(C)C)nn1 [Example 331, 1-(4-(isopropylamino)-5-(4-(2-oxopropyl)-1H-1,2,3-triazol-1-yl)pyridin-2-yl)-1H-pyrazolo[3,4-b]pyridine-5-carbonitrile] | 8.00 | 9.2 ×10⁻⁶ cm/s | 5.59 |  |
| CC(=O)N1CCC(n2cc(-c3cnc(-n4ncc5cc(C#N)cnc54)cc3NC(C)C)nn2)CC1 [Example 159, 1-(5-(1-(1-acetylpiperidin-4-yl)-1H-1,2,3-triazol-4-yl)-4-(isopropylamino)pyridin-2-yl)-1H-pyrazolo[3,4-b]pyridine-5-carbonitrile] | 8.40 | < 1.5 ×10⁻⁶ cm/s | 6.89 |  |
| CCCn1cc(-c2cnc(-n3ncc4cc(C#N)cnc43)cc2N[C@@H](C)CO)nn1 [Example 52, (S)-1-(4-((1-hydroxypropan-2-yl)amino)-5-(1-propyl-1H-1,2,3-triazol-4-yl)pyridin-2-yl)-1H-pyrazolo[3,4-b]pyridine-5-carbonitrile] | 8.52 | 3.4 ×10⁻⁶ cm/s | 6.37 |  |
| CC(C)Nc1cc(-n2ncc3cc(C#N)cnc32)ncc1-n1cc(C2CCN(C(=O)C(F)(F)F)CC2)nn1 [Example 386, 1-(4-(isopropylamino)-5-(4-(1-(2,2,2-trifluoroacetyl)piperidin-4-yl)-1H-1,2,3-triazol-1-yl)pyridin-2-yl)-1H-pyrazolo[3,4-b]pyridine-5-carbonitrile] | 8.40 | 24.8 ×10⁻⁶ cm/s | 6.70 |  |
| CCCn1cc(-c2cnc(-n3ncc4cc(C#N)cnc43)cc2NC2CCOCC2)nn1 [Example 49, 1-(5-(1-propyl-1H-1,2,3-triazol-4-yl)-4-((tetrahydro-2H-pyran-4-yl)amino)pyridin-2-yl)-1H-pyrazolo[3,4-b]pyridine-5-carbonitrile] | 8.40 | 28.8 ×10⁻⁶ cm/s | 6.24 |  |
| CCCn1cc(-c2cnc(-n3ncc4cc(C#N)cnc43)cc2NCC)nn1 [Example 54, 1-(4-(ethylamino)-5-(1-propyl-1H-1,2,3-triazol-4-yl)pyridin-2-yl)-1H-pyrazolo[3,4-b]pyridine-5-carbonitrile] | 8.05 | 40.8 ×10⁻⁶ cm/s | 5.93 |  |
| CC(=O)N1C2CCC1CC(c1cc(-c3cnc(-n4ncc5cc(C#N)cnc54)cc3NC(C)C)on1)C2 (stereo not drawn) [Example 419, 1-(5-(3-(8-acetyl-8-azabicyclo[3.2.1]octan-3-yl)isoxazol-5-yl)-4-(isopropylamino)pyridin-2-yl)-1H-pyrazolo[3,4-b]pyridine-5-carbonitrile] | 8.70 | 19.9 ×10⁻⁶ cm/s | 6.37 |  |
| CC(=O)N1CCCC(n2cc(-c3cnc(-n4ncc5cc(C#N)cnc54)cc3NC(C)C)nn2)C1 (stereo not drawn) [Example 160, 1-(5-(1-(1-acetylpiperidin-3-yl)-1H-1,2,3-triazol-4-yl)-4-(isopropylamino)pyridin-2-yl)-1H-pyrazolo[3,4-b]pyridine-5-carbonitrile] | 9.00 | 1.8 ×10⁻⁶ cm/s | 6.54 |  |
| CCCn1cnc(-c2cnc(-n3ncc4cc(C#N)cnc43)cc2NC(C)C)c1 [Example 219] | 8.00 | 31.8 ×10⁻⁶ cm/s | 5.83 |  |
| CC(C)Nc1cc(-n2ncc3cc(C#N)cnc32)ncc1-n1cc(CCC(C)(C)OC(=O)CN)nn1 [Example 378, 4-(1-(6-(5-cyano-1H-pyrazolo[3,4-b]pyridin-1-yl)-4-(isopropylamino)pyridin-3-yl)-1H-1,2,3-triazol-4-yl)-2-methylbutan-2-yl glycinate] | 8.70 | < 1.5 ×10⁻⁶ cm/s | 6.80 |  |
| CC(=O)NC1CCC(c2cn(-c3cnc(-n4ncc5cc(C#N)cnc54)cc3NC(C)C)nn2)CC1 (stereo not drawn) [Example 341, N-((1s,4s)-4-(1-(6-(5-cyano-1H-pyrazolo[3,4-b]pyridin-1-yl)-4-(isopropylamino)pyridin-3-yl)-1H-1,2,3-triazol-4-yl)cyclohexyl)acetamide] | 8.52 | < 1.5 ×10⁻⁶ cm/s | 6.52 |  |
| CCOCCn1cc(-c2cnc(-n3ncc4cc(C#N)cnc43)cc2NC(C)C)nn1 [Example 122, 1-(5-(1-(2-ethoxyethyl)-1H-1,2,3-triazol-4-yl)-4-(isopropylamino)pyridin-2-yl)-1H-pyrazolo[3,4-b]pyridine-5-carbonitrile] | 8.22 | 32.2 ×10⁻⁶ cm/s | 6.23 |  |
| CC(C)Nc1cc(-n2ncc3cc(C#N)cnc32)ncc1-c1cn(C2CCNCC2)nn1 [Example 195, 1-(4-(isopropylamino)-5-(1-(piperidin-4-yl)-1H-1,2,3-triazol-4-yl)pyridin-2-yl)-1H-pyrazolo [3,4-b]pyridine-5-carbonitrile] | 8.70 | < 1.5 ×10⁻⁶ cm/s | 6.35 |  |
| CC(C)Nc1cc(-n2ncc3cc(C#N)cnc32)ncc1-c1cn(CCc2ccccc2)nn1 [Example 56, 1-(4-(isopropylamino)-5-(1-phenethyl-1H-1,2,3-triazol-4-yl)pyridin-2-yl)-1H-pyrazolo [3,4-b]pyridine-5-carbonitrile] | 8.52 | 7.2 ×10⁻⁶ cm/s | 6.74 |  |
| CC(C)Nc1cc(-n2ncc3cc(C#N)cnc32)ncc1-c1cn([C@H](C)[C@H](C)O)nn1 (single isomer, unassigned) [Example 88] | 8.30 | 7.1 ×10⁻⁶ cm/s | 5.89 |  |
